The values that follow come from patent US10912294B2, “Composition for use as pesticide, fertilizer, or both, and uses thereof” (priority 2015, dated 2021).

Series [1] has as its system Aspergillus niger ATCC16404. The settings on record: E. pinto et al. 2006; cited from earlier work.
The test system of series [2] is Staphylococcus aureus (ATCC 6538). The series is described as follows: Minimum concentration for total bactericidal activity, AOAC method 955.15 (Phenol Coefficient Method). In kind it is cell-based. The settings on record: total antimicrobial (bactericidal) activity; incorporated into composition F; contact time 10 minutes.
The subject of a further series is Microsporum canis FF1. The settings on record: E. pinto et al. 2006; cited from earlier work.
Series [3] relates to Staphylococcus epidermidis ATCC12228. Conditions: A. Nostro et al. 2004; cited from earlier work.
A further series deals with Microsporum gypseum FF3. Conditions: E. pinto et al. 2006; cited from earlier work.
In series [4] the test system is Pseudomonas aeruginosa ATCC2730. Conditions: R. J. W. Lambert et al. 2001; cited from earlier work.
For series [5], the system named is Epidermophyton floccosum FF9. The settings on record: E. pinto et al. 2006; cited from earlier work.
Series [6] has as its system Candida tropicalis ATCC13803. The settings on record: E. pinto et al. 2006; cited from earlier work.
The next series relates to Trichophyton rubrum FF5. The settings on record: E. pinto et al. 2006; cited from earlier work.
Series [7] deals with Staphylococcus aureus ATCC43300. The settings on record: A. Nostro et al. 2004; cited from earlier work.
Series [8] has as its system Aspergillus fumigatus ATCC46645. Conditions: E. pinto et al. 2006; cited from earlier work.
In series [9] the test system is Trichophyton mentagrophytes FF7. The settings on record: E. pinto et al. 2006; cited from earlier work.
The subject of series [10] is Staphylococcus aureus ATCC6538. The settings on record: R. J. W. Lambert et al. 2001; cited from earlier work.
Series [11] relates to Candida albicans ATCC10231. Conditions: E. pinto et al. 2006; cited from earlier work.
For series [12] the following is noted: in vivo; cited from earlier work.
Series [13] relates to Treponema phagedaenis-like. The settings on record: D. Döpfer et al. 2013; cited from earlier work.
A further series concerns E. coli ATCC 25922. The series is described as follows: Sensitivity test on King B agar media. In kind it is cell-based. Conditions: streptomycin 100, 250 and 500 ppm; composition 12 at 1, 2.5 and 5%; up to 72 hours at 26° C.
In series [14] the test system is E. amylovora 153sm5 (streptomycin-resistant). In kind it is cell-based, Erwinia amylovora. The settings on record: streptomycin 100, 250 and 500 ppm; composition 12 at 1, 2.5 and 5%; up to 72 hours at 26° C.
Series [15] deals with E. amylovora 433 (streptomycin-sensitive). The experiment in a line: Sensitivity test on King B agar media. Conditions: streptomycin 100, 250 and 500 ppm; composition 12 at 1, 2.5 and 5%; up to 72 hours at 26° C. In kind it is cell-based, Erwinia amylovora.
Series [16] has as its system E. amylovora 435 (streptomycin-sensitive). The series is described as follows: Sensitivity test on King B agar media. In kind it is cell-based, Erwinia amylovora. Conditions: streptomycin 100, 250 and 500 ppm; composition 12 at 1, 2.5 and 5%; up to 72 hours at 26° C.

Where only a bound is given, the exact number is not on record here.

Take `Cc1ccc(C(C)C)cc1O` [Carvacrol]: the MIC in series [1] is on record as 0.016 v/v %; in the series with Microsporum canis FF1, 0.004 v/v %; in series [3], 0.03 v/v %; in the series on Microsporum gypseum FF3, 0.004 v/v %; in [4], 0.045 v/v %; in [5], 0.008 v/v %. Also, the MIC in series [6] is 0.016 v/v %; in the series on Trichophyton rubrum FF5, 0.008 v/v %; in [7], 0.015 v/v %; in [8], 0.016 v/v %; in [9] it was 0.004 v/v %; in [10], 0.0175 v/v %. Further, the MIC in series [11] is listed as 0.016 v/v %. The “Minimal Concentration” value in series [2] is 0.07 v/v %.

With `CC(C)=CCCC(C)=CC=O` [Citral], the “Minimal Concentration” value in series [2] is reported as more than 1% v/v %.

Consider `C=CCc1ccc(O)c(OC)c1` [Eugenol], for which the “Minimal Concentration” value in series [2] worked out at 0.4 v/v %.

With `COCC(C)O` (stereo not shown) [Glycol Ether PM], in [12], the “LD50 Oral-rat” value was 5 210 mg/kg.

Regarding `CCCCCCCCCCCCOS(=O)(=O)[O-].[Na+]` [Sodium Lauryl Sulfate], the “LD50 Oral-rat” value in series [12] was 1288 mg/kg.

As to `Cc1ccc(C(C)C)c(O)c1` [Thymol], the MIC is on record as 0.016 v/v % in series [1]; 0.008 v/v % in the series with Microsporum canis FF1; 0.0006 v/v % in series [13]; 0.06 v/v % in series [3]; 0.016 v/v % in the series with Microsporum gypseum FF3; 0.0385 v/v % in series [4]. The MIC is 0.016 v/v % in [5]; 0.016 v/v % in [6]; 0.016 v/v % in the series on Trichophyton rubrum FF5; 0.06 v/v % in series [7]; 0.016 v/v % in series [8]; 0.016 v/v % in [9]. The MIC was 0.014 v/v % in series [10] and 0.016 v/v % in series [11]. Moreover, in series [2], the “Minimal Concentration” value stood at 0.07 v/v %.

Regarding `[H]/N=C(/N)N[C@H]1[C@H](O)[C@@H](O)[C@H](O[C@@H]2O[C@@H](C)[C@](O)(C=O)[C@H]2O[C@@H]2O[C@@H](CO)[C@H](O)[C@@H](O)[C@@H]2NC)[C@@H](N/C(N)=N\[H])[C@@H]1O` [streptomycin], the “Bacterial growth on King B agar media containing the agent” value is “did not grow” in the series with E. coli ATCC 25922, “not inhibited” in series [14], “did not grow” in series [15] and “did not grow” in [16].
